Test [1] concerns Metastase. The following applies: literature, cited from earlier work.
Test [2] concerns B-16a-Melanom-Zellen. The settings on record: literature; metastasis induced by intravenous B-16a melanoma cells; cited from earlier work.
The subject of test [3] is Lewis-Lungen-Karzinom. Nature of the test: Tumour incidence and final tumour weight of subcutaneous Lewis lung carcinoma in mice. Format: in vivo, C57BL/6J Mäuse. The settings on record: killed day 22. The text has this:
Die antineoplastische Wirksamkeit wurde außerdem durch direkte Messung des Wachstums der Tumorzellen in vitro in Gewebekulturen bestimmt. Diese Methode bedient sich des "Plating" oder Aufimpfens einer bekannten Anzahl von Tumorzellen auf ein Wachstumsmedium und der Bestimmung der Wirkung der Anwesenheit der zu prüfenden Verbindung auf die Tumorzellen-Proliferation. Schließlich wurde die antineoplastische Aktivität in vivo in der Weise bestimmt, daß den Mäusen subkutan Tumorzellen injiziert wurden und das Auftreten von Tumorzellenwachstum sowie das Gewicht der wachsenden Tumorzellen in unbehandelten Kontrolltieren und in mit der Pyrazolon-Verbindung behandelten Tieren bestimmt wurden.
3 mg 3-Methyl-1-[2-(2-naphthyloxy)-ethyl]-2-pyrazolin-5-on wurden in 0,6 ml Ethylalkohol gelöst, und die Lösung wurde mit konzentrierter Natronlauge auf einen pH von 9,5 eingestellt.
Syngeneischen C57BL/6J Wirts-Mäusen wurden 1 x 10^5 Lewis-Lungenkarzinom-Zellen (0,2 ml) subkutan in die Achselhöhlenregion injiziert. Nach einem Zeitraum von 24 Stunden wurde die Pyrazolon-Verbindung 21 Tage lang täglich verabreicht. Die Wirkung der Verabreichung von Theophyllin zusammen mit der Pyrazolon-Verbindung wurde ebenfalls untersucht. Während des Zeitraums wurden die Mäuse unter identischen Bedingungen der Temperatur, Lichteinwirkungsdauer, Ernährung etc. gehalten. Die Mäuse wurden 22 Tage nach der Injektion der Tumorzellen getötet und mittels einer Gesamt-Nekropsie auf die Anwesenheit subkutaner Tumoren untersucht. Vorhandene Tumoren wurden entfernt und auf einer Analysenwaage gewogen.

Test [4] deals with B-16a-amelanotischen Melanom-Zellen. Nature of the test: Metastasis of tail-vein injected B-16a melanoma cells (lung tumour colonies) in mice. Format: in vivo, C57BL/6J Mäuse. The following applies: Theophyllin 200 µg injected 1 h before the tumour cells; 5 x 10^4 cells i.v.; mean ± SEM, n = 6. The source says:
Wie bereits weiter oben festgestellt wurde, ist die Metastase […], die durch eine Reihe komplizierter Vorgänge dargestellt wird. Gegenwärtig finden zwei "Modell"-Systeme für die Untersuchung der in vivo-Metastase verbreitete Anwendung. Das erste Modellsystem umfaßt die subkutane Injektion der Tumorzellen in das Tier. Die subkutane Injektion der Tumorzellen und anschließende Entwicklung eines Primärtumors, gefolgt von spontaner Metastase, wird als "volle" Metastase betrachtet. Ein anderes Modellsystem umfaßt die Injektion der Tumorzellen durch die Schwanzvene. In Anbetracht der Komplexität der Metastase gilt die Schwanzvenen-Injektion als künstliches und nur partielles Modellsystem, da es nur die Vorgänge während des letzteren Teils der Metastase wiedergibt. Das Schwanzvenen-Modellsystem gilt jedoch auch als außerordentlich günstig im Hinblick auf eine Standardisierung der Versuchsbedingungen [vgl."Methods in Cancer Research", Kapitel VII, Academic Press, Inc., 1978].
Als Kontrolltiere wurden (unbehandelte) C57B1/6J-Mäuse nach folgender Arbeitsweise auf volle Metastase untersucht. Zellsuspensionen der B-16 - und 3LL-Karzinom-Zellen, die wie oben unter A und B beschrieben erhalten worden waren, wurden subkutan in die rechte Achselhöhlenregion der männlichen C57BL/6J-Mäuse injiziert (0,66 mm- = 26 gauge -Nadel; 0,2 ml). Injiziert wurden verschiedene Mengen der Zellsuspensionen im Bereich von 1 x 10^5 bis 1 x 10^6 Zellen. Versuche zur partiellen Metastase wurden in der Weise durchgeführt, daß Tumorzellen über die Schwanzvene in die (unbehandelten) Kontroll-Mäuse injiziert wurden. Die Tiere wurden unter identischen Bedingungen der Temperatur, Lichteinwirkungsdauer, Ernährung etc. gehalten. Nach einem Beobachtungszeitraum von 17 bis 30 Tagen wurden die für die volle Metastase und für die partielle Metastase verwendeten Tiere getötet, und die Lungen, Leber, Nieren, Milz und Gehirn-Gewebe wurde entnommen.
Das entnommene Gewebe wurde in Bouin-Lösung fixiert.
Die Zahl der metastatischen Knötchen in jedem Organ wurde mit Hilfe eines Bausch-und-Lomb Stereo-Zoom-Mikroskops bestimmt. Die Untersuchung der Kontroll- Mäuse auf metastatische Knötchen ergab bei 100 % der Tiere positive Befunde in bezug auf metastatische Lungentumoren; die Inkubationszeit für die Erzeugung solcher Metastasen betrug für die 3LL-Tumorzellen 17 bis 21 Tage und für die B-16 a -Tumorzellen 23 bis 30 Tage. In Leber, Nieren, Milz oder Gehirn-Gewebe wurden keine sichtbaren Knötchen beobachtet.
3 mg 3-Methyl-1-[2-(2-naphthyloxy)-ethyl]-2-pyrazolin-5-on wurden in 0,6 ml absolutem Ethylalkohol suspendiert. Das suspendierte Pyrazolon wurde durch Einstellen des pH auf 9,5 mit NaOH gelöst. […]

This is an account of results in EP0062319A1, “3-Methyl-1-(2-(3-naphthyloxy)-ethyl)-2-pyrazolin-5-one for the treatment of the metastasis and growth of tumour cells” (BAYER AG, priority 1981, dated 1982).

SMILES strings stand for the structures.

`CC(=O)Oc1ccccc1C(=O)O` [Aspirin]: the Metastase result in test [1] is “gemischte Ergebnisse”.
On to `CCCCC[C@H](O)/C=C/[C@@H]1[C@H]2C/C(=C/CCCC(=O)O)O[C@H]2C[C@H]1O` [Prostacyclin], for which the Metastase result in test [2] is listed as “verhindert werden kann”.
On to `Cn1c(=O)c2[nH]cnc2n(C)c1=O` [Theophyllin, reference compound], for which the “Tumor-Häufigkeit Anzahl” value in test [3] (250 µg Theophyllin daily i.p. in 0,4 ml) was 9/12. The Tumor-Häufigkeit % in test [3] (250 µg Theophyllin daily i.p.) is 75%. The “Gewicht” value in test [3] (final tumour weight, 250 µg Theophyllin daily i.p.) worked out at 1.58 ± 0.42 mg. In test [4], this molecule gave a Lungen-Tumor-Kolonien of 165 ± 38.
On to `CC(=O)CC(c1ccccc1)c1c(O)c2ccccc2oc1=O` (stereo not shown) [Warfarin], for which the “antimetastatische Wirkungen” value in test [1] (after intravenous injection of tumour cells and in spontaneously metastasising tumours) is “signifikante antimetastatische Wirkungen”.
